According to US20240158446A1, “CYCLIC COMPOUND HAVING SELECTIVE INHIBITORY ACTION ON KRAS OVER HRAS AND NRAS” (CHUGAI SEIYAKU KABUSHIKI KAISHA, priority 2021, published 2024):
*1 amine or outer side, *2 acyl side, *3 side chain or, on linkers, in order; H or OH if unused. Where a SMILES comes first, the peptide text is derived from it. Bridges are numbered along the chain shown (N, C = ends). [ ]: non-standard residue; d: D form. The star is where a group is joined. X25 = O=C([C@H](Cc1ccc(C(F)(F)F)cc1)N(CCC(F)(F)F)[*:1])[*:2]; X22 = O=C([C@H](Cc1ccc(C(F)(F)F)cc1)N(CC1CCCC1)[*:1])[*:2]; hPhe(3-Cl-4-CF3) = N[C@@H](CCc1ccc(C(F)(F)F)c(Cl)c1)C(=O)O; X37 = O=C([C@H](Cc1ccc(C(F)(F)F)cc1)N(CC1CCC1)[*:1])[*:2]; X40 = CC(C)CN([C@@H](Cc1ccc(C(F)(F)F)cc1)C(=O)[*:2])[*:1]; X23 = C=CCCN([C@@H](Cc1ccc(C(F)(F)F)cc1)C(=O)[*:2])[*:1]; X27 = O=C([C@H](Cc1ccc(C(F)(F)F)cc1)N(CC1CC1)[*:1])[*:2]; X17 = CCCCN([C@@H](Cc1ccc(C(F)(F)F)cc1)C(=O)[*:2])[*:1]; X32 = COCCN([C@@H](Cc1ccc(C(F)(F)F)cc1)C(=O)[*:2])[*:1]; X38 = C#CCN([C@@H](Cc1ccc(C(F)(F)F)cc1)C(=O)[*:2])[*:1]; X5 = C=CCN([C@@H](Cc1ccc(C(F)(F)F)cc1)C(=O)[*:2])[*:1]; X28 = COCCCN([C@@H](Cc1ccc(C)cc1)C(=O)[*:2])[*:1]; X35 = COCCN([C@@H](Cc1ccc(C)cc1)C(=O)[*:2])[*:1]; NMeGly(cPent) = CN[C@H](C(=O)O)C1CCCC1; NMeD = CN[C@@H](CC(=O)O)C(=O)O; NMeL = CN[C@@H](CC(C)C)C(=O)O; Morpholide = C1CN(*)CCO1; NMeA = CN[C@@H](C)C(=O)O; Ac5c = NC1(C(=O)O)CCCC1; Aze = O=C(O)[C@@H]1CCN1; Sar = CNCC(=O)O

Experiments:
[1] = target: GDP-bound NRAS wild-type protein (Homo sapiens, UniProt P01111); test: Binding to NRAS by surface plasmon resonance (SPR), Single Cycle Kinetics; details: SPR, GDP-bound NRAS wild-type protein vs GDP-bound KRAS wild-type protein
Sequence of GDP-bound NRAS wild-type protein (P01111 whole entry): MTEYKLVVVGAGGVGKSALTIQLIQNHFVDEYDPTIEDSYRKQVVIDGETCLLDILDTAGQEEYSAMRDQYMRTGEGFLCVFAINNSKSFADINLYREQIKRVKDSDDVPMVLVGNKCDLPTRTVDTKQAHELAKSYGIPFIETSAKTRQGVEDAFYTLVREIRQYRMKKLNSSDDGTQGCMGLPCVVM

[2] = target: GDP-bound HRAS wild-type protein (Homo sapiens, UniProt P01112); test: Binding to HRAS by surface plasmon resonance (SPR), Single Cycle Kinetics; details: SPR, GDP-bound HRAS wild-type protein vs GDP-bound KRAS wild-type protein
Sequence of GDP-bound HRAS wild-type protein (P01112 whole entry): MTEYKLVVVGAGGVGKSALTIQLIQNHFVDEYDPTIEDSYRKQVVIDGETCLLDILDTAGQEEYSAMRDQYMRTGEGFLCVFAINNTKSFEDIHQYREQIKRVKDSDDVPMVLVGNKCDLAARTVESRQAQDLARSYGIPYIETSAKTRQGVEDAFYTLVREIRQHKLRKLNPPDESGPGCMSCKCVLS

[3] = target: GDP-bound KRAS wild-type protein (Homo sapiens, UniProt P01116); test: Binding to KRAS by surface plasmon resonance (SPR), Single Cycle Kinetics; details: SPR Single Cycle Kinetics, GDP-bound KRAS wild-type protein, 1:1 binding model; read-out: KRAS KD
Sequence of GDP-bound KRAS wild-type protein (P01116 whole entry): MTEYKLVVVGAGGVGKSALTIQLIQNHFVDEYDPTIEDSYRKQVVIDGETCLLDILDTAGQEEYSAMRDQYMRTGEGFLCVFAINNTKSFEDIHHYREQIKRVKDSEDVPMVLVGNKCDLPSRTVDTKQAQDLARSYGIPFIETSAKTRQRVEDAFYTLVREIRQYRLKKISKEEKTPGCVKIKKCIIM

| Kd [3] [nM] | Compound | NRAS/KRAS (ratio of KD value for NRAS to KD value for KRAS) [1] | HRAS/KRAS (ratio of KD value for HRAS to KD value for KRAS) [2] |
| --- | --- | --- | --- |
| 0.25 | CC[C@H](C)[C@@H]1NC(=O)[C@H](CC(C)C)N(C)C(=O)C[C@@H](C(=O)N2CCOCC2)N(C)C(=O)[C@H](C2CCCC2)N(C)C(=O)C2(CCCC2)NC(=O)[C@@H]2CCCN2C(=O)[C@H](CCc2ccc(C(F)(F)F)c(Cl)c2)NC(=O)CN(C)C(=O)[C@H](Cc2ccc(C)cc2)N(CCOC)C(=O)CN(C)C(=O)CN(C)C1=O [PP0104] ([NMeL]I[Sar][Sar][X35][Sar][hPhe(3-Cl-4-CF3)]P[Ac5c][NMeGly(cPent)][NMeD]-Morpholide; lactam N-11) | B (a compound having 3 or more and less than 10 is denoted as B) | C (A compound having a KD ratio of 0.1 or more and less than 3 is denoted as C) |
| 0.14 | CC[C@H](C)[C@@H]1NC(=O)[C@H](CC(C)C)N(C)C(=O)C[C@@H](C(=O)N2CCOCC2)N(C)C(=O)[C@H](C2CCCC2)N(C)C(=O)C2(CCCC2)NC(=O)[C@@H]2CCCN2C(=O)[C@H](CCc2ccc(C(F)(F)F)c(Cl)c2)NC(=O)CN(C)C(=O)[C@H](Cc2ccc(C)cc2)N(CCCOC)C(=O)CN(C)C(=O)CN(C)C1=O [PP0105] ([NMeL]I[Sar][Sar][X28][Sar][hPhe(3-Cl-4-CF3)]P[Ac5c][NMeGly(cPent)][NMeD]-Morpholide; lactam N-11) | B (a compound having 3 or more and less than 10 is denoted as B) | C (A compound having a KD ratio of 0.1 or more and less than 3 is denoted as C) |
| 0.19 | CCCCN1C(=O)[C@@H]2CCN2C(=O)[C@H](C)N(C)C(=O)[C@H]([C@@H](C)CC)NC(=O)[C@H](CC(C)C)N(C)C(=O)C[C@@H](C(=O)N2CCOCC2)N(C)C(=O)[C@H](C2CCCC2)N(C)C(=O)C2(CCCC2)NC(=O)[C@@H]2CCCN2C(=O)[C@H](CCc2ccc(C(F)(F)F)c(Cl)c2)NC(=O)CN(C)C(=O)[C@@H]1Cc1ccc(C(F)(F)F)cc1 [PP0106] ([NMeL]I[NMeA][Aze][X17][Sar][hPhe(3-Cl-4-CF3)]P[Ac5c][NMeGly(cPent)][NMeD]-Morpholide; lactam N-11) | C (A compound having a KD ratio of 0.1 or more and less than 3 is denoted as C) | B (a compound having 3 or more and less than 10 is denoted as B) |
| 1.7 | CC[C@H](C)[C@@H]1NC(=O)[C@H](CC(C)C)N(C)C(=O)C[C@@H](C(=O)N2CCOCC2)N(C)C(=O)[C@H](C2CCCC2)N(C)C(=O)C2(CCCC2)NC(=O)[C@@H]2CCCN2C(=O)[C@H](CCc2ccc(C(F)(F)F)c(Cl)c2)NC(=O)CN(C)C(=O)[C@H](Cc2ccc(C(F)(F)F)cc2)N(CC(C)C)C(=O)[C@@H]2CCN2C(=O)[C@H](C)N(C)C1=O [PP0107] ([NMeL]I[NMeA][Aze][X40][Sar][hPhe(3-Cl-4-CF3)]P[Ac5c][NMeGly(cPent)][NMeD]-Morpholide; lactam N-11) | C (A compound having a KD ratio of 0.1 or more and less than 3 is denoted as C) | C (A compound having a KD ratio of 0.1 or more and less than 3 is denoted as C) |
| 0.2 | CC[C@H](C)[C@@H]1NC(=O)[C@H](CC(C)C)N(C)C(=O)C[C@@H](C(=O)N2CCOCC2)N(C)C(=O)[C@H](C2CCCC2)N(C)C(=O)C2(CCCC2)NC(=O)[C@@H]2CCCN2C(=O)[C@H](CCc2ccc(C(F)(F)F)c(Cl)c2)NC(=O)CN(C)C(=O)[C@H](Cc2ccc(C(F)(F)F)cc2)N(CC2CC2)C(=O)[C@@H]2CCN2C(=O)[C@H](C)N(C)C1=O [PP0108] ([NMeL]I[NMeA][Aze][X27][Sar][hPhe(3-Cl-4-CF3)]P[Ac5c][NMeGly(cPent)][NMeD]-Morpholide; lactam N-11) | C (A compound having a KD ratio of 0.1 or more and less than 3 is denoted as C) | C (A compound having a KD ratio of 0.1 or more and less than 3 is denoted as C) |
| 1.3 | CC[C@H](C)[C@@H]1NC(=O)[C@H](CC(C)C)N(C)C(=O)C[C@@H](C(=O)N2CCOCC2)N(C)C(=O)[C@H](C2CCCC2)N(C)C(=O)C2(CCCC2)NC(=O)[C@@H]2CCCN2C(=O)[C@H](CCc2ccc(C(F)(F)F)c(Cl)c2)NC(=O)CN(C)C(=O)[C@H](Cc2ccc(C(F)(F)F)cc2)N(CC2CCC2)C(=O)[C@@H]2CCN2C(=O)[C@H](C)N(C)C1=O [PP0109] ([NMeL]I[NMeA][Aze][X37][Sar][hPhe(3-Cl-4-CF3)]P[Ac5c][NMeGly(cPent)][NMeD]-Morpholide; lactam N-11) | C (A compound having a KD ratio of 0.1 or more and less than 3 is denoted as C) | B (a compound having 3 or more and less than 10 is denoted as B) |
| 4 | CC[C@H](C)[C@@H]1NC(=O)[C@H](CC(C)C)N(C)C(=O)C[C@@H](C(=O)N2CCOCC2)N(C)C(=O)[C@H](C2CCCC2)N(C)C(=O)C2(CCCC2)NC(=O)[C@@H]2CCCN2C(=O)[C@H](CCc2ccc(C(F)(F)F)c(Cl)c2)NC(=O)CN(C)C(=O)[C@H](Cc2ccc(C(F)(F)F)cc2)N(CC2CCCC2)C(=O)[C@@H]2CCN2C(=O)[C@H](C)N(C)C1=O [PP0110] ([NMeL]I[NMeA][Aze][X22][Sar][hPhe(3-Cl-4-CF3)]P[Ac5c][NMeGly(cPent)][NMeD]-Morpholide; lactam N-11) | C (A compound having a KD ratio of 0.1 or more and less than 3 is denoted as C) | B (a compound having 3 or more and less than 10 is denoted as B) |
| 0.16 | C=CCN1C(=O)[C@@H]2CCN2C(=O)[C@H](C)N(C)C(=O)[C@H]([C@@H](C)CC)NC(=O)[C@H](CC(C)C)N(C)C(=O)C[C@@H](C(=O)N2CCOCC2)N(C)C(=O)[C@H](C2CCCC2)N(C)C(=O)C2(CCCC2)NC(=O)[C@@H]2CCCN2C(=O)[C@H](CCc2ccc(C(F)(F)F)c(Cl)c2)NC(=O)CN(C)C(=O)[C@@H]1Cc1ccc(C(F)(F)F)cc1 [PP0114] ([NMeL]I[NMeA][Aze][X5][Sar][hPhe(3-Cl-4-CF3)]P[Ac5c][NMeGly(cPent)][NMeD]-Morpholide; lactam N-11) | C (A compound having a KD ratio of 0.1 or more and less than 3 is denoted as C) | C (A compound having a KD ratio of 0.1 or more and less than 3 is denoted as C) |
| 0.21 | C=CCCN1C(=O)[C@@H]2CCN2C(=O)[C@H](C)N(C)C(=O)[C@H]([C@@H](C)CC)NC(=O)[C@H](CC(C)C)N(C)C(=O)C[C@@H](C(=O)N2CCOCC2)N(C)C(=O)[C@H](C2CCCC2)N(C)C(=O)C2(CCCC2)NC(=O)[C@@H]2CCCN2C(=O)[C@H](CCc2ccc(C(F)(F)F)c(Cl)c2)NC(=O)CN(C)C(=O)[C@@H]1Cc1ccc(C(F)(F)F)cc1 [PP0115] ([NMeL]I[NMeA][Aze][X23][Sar][hPhe(3-Cl-4-CF3)]P[Ac5c][NMeGly(cPent)][NMeD]-Morpholide; lactam N-11) | C (A compound having a KD ratio of 0.1 or more and less than 3 is denoted as C) | C (A compound having a KD ratio of 0.1 or more and less than 3 is denoted as C) |
| 0.27 | C#CCN1C(=O)[C@@H]2CCN2C(=O)[C@H](C)N(C)C(=O)[C@H]([C@@H](C)CC)NC(=O)[C@H](CC(C)C)N(C)C(=O)C[C@@H](C(=O)N2CCOCC2)N(C)C(=O)[C@H](C2CCCC2)N(C)C(=O)C2(CCCC2)NC(=O)[C@@H]2CCCN2C(=O)[C@H](CCc2ccc(C(F)(F)F)c(Cl)c2)NC(=O)CN(C)C(=O)[C@@H]1Cc1ccc(C(F)(F)F)cc1 [PP0116] ([NMeL]I[NMeA][Aze][X38][Sar][hPhe(3-Cl-4-CF3)]P[Ac5c][NMeGly(cPent)][NMeD]-Morpholide; lactam N-11) | C (A compound having a KD ratio of 0.1 or more and less than 3 is denoted as C) | C (A compound having a KD ratio of 0.1 or more and less than 3 is denoted as C) |
| 0.19 | CC[C@H](C)[C@@H]1NC(=O)[C@H](CC(C)C)N(C)C(=O)C[C@@H](C(=O)N2CCOCC2)N(C)C(=O)[C@H](C2CCCC2)N(C)C(=O)C2(CCCC2)NC(=O)[C@@H]2CCCN2C(=O)[C@H](CCc2ccc(C(F)(F)F)c(Cl)c2)NC(=O)CN(C)C(=O)[C@H](Cc2ccc(C(F)(F)F)cc2)N(CCC(F)(F)F)C(=O)[C@@H]2CCN2C(=O)[C@H](C)N(C)C1=O [PP0117] ([NMeL]I[NMeA][Aze][X25][Sar][hPhe(3-Cl-4-CF3)]P[Ac5c][NMeGly(cPent)][NMeD]-Morpholide; lactam N-11) | B (a compound having 3 or more and less than 10 is denoted as B) | B (a compound having 3 or more and less than 10 is denoted as B) |
| 0.21 | CC[C@H](C)[C@@H]1NC(=O)[C@H](CC(C)C)N(C)C(=O)C[C@@H](C(=O)N2CCOCC2)N(C)C(=O)[C@H](C2CCCC2)N(C)C(=O)C2(CCCC2)NC(=O)[C@@H]2CCCN2C(=O)[C@H](CCc2ccc(C(F)(F)F)c(Cl)c2)NC(=O)CN(C)C(=O)[C@H](Cc2ccc(C(F)(F)F)cc2)N(CCOC)C(=O)[C@@H]2CCN2C(=O)[C@H](C)N(C)C1=O [PP0118] ([NMeL]I[NMeA][Aze][X32][Sar][hPhe(3-Cl-4-CF3)]P[Ac5c][NMeGly(cPent)][NMeD]-Morpholide; lactam N-11) | C (A compound having a KD ratio of 0.1 or more and less than 3 is denoted as C) | C (A compound having a KD ratio of 0.1 or more and less than 3 is denoted as C) |
